# Assay results: patent publication US20230000842A1, “METHODS OF TREATING CARTILAGE DISORDERS THROUGH INHIBITION OF CLK AND DYRK” (SAMUMED, LLC, priority 2019, published 2023)
# Legend:
# [1] = test system: primary human mesenchymal stem cells (hMSCs); assay: Chondrogenesis screening using primary human mesenchymal stem cells; assay type: cell-based; conditions: Homo sapiens, Mesenchymal stem cells, hMSC chondrogenesis; for Emax: maximum activity relative to TGF-β3 (10 ng/mL) positive control, read-out: Max. Activity as % TGF-β3 activity; for EC50: concentration required to induce 50% levels of chondrogenesis with TGF-β3 as positive control, read-out: Conc (nM) of 50% TGF-β3 activity
# In short: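 Primary hMSCs at passage 3–6 were treated across compound concentrations, with TGF-β3 as positive control. Chondrogenic nodule area per well was normalized to 3 DMSO wells on the same plate (fold over DMSO, 2–3 replicates). EC50, maximum activity and the dose reaching it were derived.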
# [2] = test system: Wnt pathway activity (SW480 colon carcinoma cells stably expressing the Sp5-Luc reporter); assay: Wnt pathway activity screening assay (Sp5-Luc reporter gene assay); conditions: Homo sapiens, SW480, Table 4; SW480 cells stably expressing Sp5-Luc reporter, 10-point dose-response from 10 μM, 36 to 48 hours
# Procedure: The screening assay for Wnt pathway activity is described as follows.
# SW480 colon carcinoma cells were transduced with a lentiviral vector expressing luciferase with a human Sp5 promoter consisting of a sequence of eight TCF/LEF binding sites. […] These stably transduced SW480 cells were expanded in cell culture and used for all further screening activities. Each compound was dissolved in DMSO as a 10 mM stock and used to prepare compound source plates. Serial dilution (1:3, 10-point dose-response curves starting from 10 μM) and compound transfer was performed using the ECHO 550 (Labcyte, Sunnyvale, Calif.) into 384-well white solid bottom assay plates (Greiner Bio-One) with appropriate DMSO backfill for a final DMSO concentration of 0.1%. […] Following incubation, 15 μl of BriteLite Plus luminescence reagent (Perkin Elmer) was added to each well of the 384-well assay plates. The plates were placed on an orbital shaker for 2 min and then luminescence was quantified using the Envision (Perkin Elmer) plate reader.
# [3] = test system: MMP-3 levels in supernatant of chondrocytes stimulated with IL1-β; assay: Chondrocyte protection assay compound screening (MMP-3 LANCE Ultra); assay type: cell-based, human; conditions: Homo sapiens, Chondrocyte, IL1-β 10 ng/mL overnight, 11-point curves from 3 μM to 0.05 nM; for Emax: read-out: Maximum % Inhibition
# In short: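 Primary human chondrocytes (passage 2–5) in differentiation medium were stimulated with 10 ng/mL IL1-β for an overnight incubation at 37 °C. MMP-3 in 1:7-diluted supernatant was read by TR-FRET immunoassay against a standard curve, normalised to IL1-β-stimulated wells; EC50 and maximum % inhibition came from nonlinear regression.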
# [4] = target: CLK3 kinase (Homo sapiens, UniProt P49761); assay: CLK3 kinase activity assay (Z-lyte FRET); assay type: biochemical; conditions: Z-lyte Ser/Thr 18 peptide, 156 μM ATP, 1 h at room temperature;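 also: kinase activity read as coumarin/fluorescein emission ratio by FRET, unphosphorylated peptide as 0% and phosphorylated peptide as 100% control, values from non-linear regression of dose-response curves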
# CLK3 kinase, sequence (P49761 whole entry): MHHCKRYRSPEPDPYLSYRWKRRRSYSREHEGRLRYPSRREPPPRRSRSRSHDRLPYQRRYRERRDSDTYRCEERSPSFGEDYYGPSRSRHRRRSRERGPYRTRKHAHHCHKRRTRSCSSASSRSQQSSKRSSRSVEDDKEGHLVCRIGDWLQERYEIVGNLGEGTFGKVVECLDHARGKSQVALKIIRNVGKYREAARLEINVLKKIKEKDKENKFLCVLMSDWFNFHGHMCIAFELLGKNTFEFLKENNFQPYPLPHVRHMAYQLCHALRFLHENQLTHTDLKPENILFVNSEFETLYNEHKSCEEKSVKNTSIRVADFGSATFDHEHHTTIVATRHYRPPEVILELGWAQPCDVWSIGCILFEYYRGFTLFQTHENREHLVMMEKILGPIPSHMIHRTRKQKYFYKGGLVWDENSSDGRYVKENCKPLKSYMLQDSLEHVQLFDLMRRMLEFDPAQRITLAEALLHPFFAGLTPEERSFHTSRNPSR
# [5] = target: CLK2 kinase (Homo sapiens, UniProt P49760); assay: CLK2 kinase activity assay (Z-lyte FRET); assay type: biochemical; conditions: Z-lyte Ser/Thr 6 peptide, 60 μM ATP, 1 h at room temperature;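 also: FRET read-out as coumarin to fluorescein emission ratio, unphosphorylated peptide as 0% and phosphorylated peptide as 100% controls, duplicate reactions, non-linear regression fit of dose-response curves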
# CLK2 kinase, sequence (P49760 whole entry): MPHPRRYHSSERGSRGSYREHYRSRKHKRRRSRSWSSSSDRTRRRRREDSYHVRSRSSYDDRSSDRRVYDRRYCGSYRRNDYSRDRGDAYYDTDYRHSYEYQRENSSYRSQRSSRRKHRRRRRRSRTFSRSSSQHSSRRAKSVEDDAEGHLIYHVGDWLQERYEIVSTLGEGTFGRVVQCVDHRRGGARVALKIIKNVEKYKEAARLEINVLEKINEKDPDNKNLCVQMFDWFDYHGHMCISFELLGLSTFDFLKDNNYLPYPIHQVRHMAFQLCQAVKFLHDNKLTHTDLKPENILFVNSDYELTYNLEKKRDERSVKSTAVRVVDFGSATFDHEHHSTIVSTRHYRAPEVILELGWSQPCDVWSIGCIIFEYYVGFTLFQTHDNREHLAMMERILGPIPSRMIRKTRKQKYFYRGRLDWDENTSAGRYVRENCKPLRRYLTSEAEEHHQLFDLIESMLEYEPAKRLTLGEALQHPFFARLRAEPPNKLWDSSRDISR
Compound,EC50 [2] [nM],EC50 [4] [nM],EC50 [5] [nM],EC50 [1] [nM],Emax [1] [%],EC50 [3] [nM],Emax [3] [%]
Cc1cn(-c2cncc3[nH]c(-c4n[nH]c5ccc(-c6cncc(NC(=O)C(C)(C)C)c6)nc45)nc23)cn1 [compound 222],> 10000,263,3,100,150,1150,64.9
CN(C)Cc1cncc(-c2cnc3[nH]nc(-c4nc5c(-c6cccs6)cncc5[nH]4)c3c2)c1 [compound 260],48,128,1,30,146,≥ 3000,
Cc1ccc(-c2nccc3[nH]c(-c4n[nH]c5ccc(-c6cncc(N)c6)nc45)nc23)s1 [compound 275],45.5,20,1,10,72.6,≥ 3000,58.4
CC(C)Nc1cncc(-c2ccc3[nH]nc(-c4nc5c(-c6cc(F)cc(NCCN(C)C)c6)cncc5[nH]4)c3n2)c1 [compound 284],1660,25,1,300,96.8,≥ 3000,32.9
CC(C)CC(=O)Nc1cncc(-c2cc3c(-c4nc5c(-c6cc(F)cc(OCCN7CCCC7)c6)cncc5[nH]4)n[nH]c3cn2)c1 [compound 298],> 10000,13,1,,20.3,≥ 3000,23.2
O=C(CC1CCNCC1)Nc1cncc(-c2ccc3[nH]nc(-c4cc5c(N6CCCCC6)nccc5[nH]4)c3n2)c1 [compound 462],> 10000,48,2,,21.8,1470,99.9
O=C(Nc1cc2cc(-c3cncc(NC4CCNC[C@@H]4F)n3)ccc2cn1)C1CC1 (stereo partly shown) [compound 603],9.5,11,1,2700,68,≥ 3000,55.5
O=C1COc2cccc(c2)-c2cncc3[nH]c(nc23)-c2n[nH]c3ccc(cc23)-c2cncc(c2)N1 [compound 620],86.8,16,3,100,185,37.4,37.1
CN1CCCn2cc(nn2)-c2nccc3[nH]c(nc23)-c2n[nH]c3ccc(cc23)-c2cncc(c2)C1 [compound 621],338,26,3,10,181,≥ 3780,46.5
CN1CCN(c2cc(Nc3ncc4c(-c5ccc6ncccc6c5)c[nH]c4n3)ccn2)CC1 [compound 623],284,10,2,30,73.4,≥ 9980,89.5

# Second part, led by results:
EC50 [2] [nM],EC50 [4] [nM],EC50 [5] [nM],EC50 [1] [nM],Compound,Emax [1] [%],EC50 [3] [nM],Emax [3] [%]
23,61,1,,c1cncc(-c2ccc3[nH]nc(-c4nc5c(N6CCOCC6)cncc5[nH]4)c3c2)c1 [compound 220],90.4,13.6,100
3730,214,2,10,CCNCc1cncc(-c2cc3c(-c4cc5c(-c6cccnc6)cncc5[nH]4)n[nH]c3cn2)c1 [compound 367],67.6,≥ 3000,75.7
> 10000,69,3,,O=C(Nc1cncc(-c2cnc3[nH]nc(-c4cc5c(-c6ccncc6)cncc5[nH]4)c3c2)c1)C1CCC1 [compound 394],43.5,17.9,90.4
3290,142,3,,CN1CCN(c2cncc3[nH]c(-c4n[nH]c5ccc(-c6cncc(CNCc7ccccc7)c6)cc45)cc23)CC1 [compound 490],101,329,80.2
> 10000,51,2,,CCNCc1cncc(-c2cnc3[nH]nc(-c4cc5c(-c6cc(F)cc(CNS(C)(=O)=O)c6)cncc5[nH]4)c3c2)c1 [compound 533],42.8,≥ 3000,40.8
51.8,29,2,50,O=C1CCc2cccc(c2)-c2cncc3[nH]c(nc23)-c2n[nH]c3ccc(cc23)-c2cncc(c2)N1 [compound 619],225,≥ 3000,71.5
> 10000,36,5,30,O=C1CCc2cccc(c2)-c2cncc(c2)NC(=O)c2n[nH]c3ccc(cc23)-c2cncc(c2)CN1 [compound 622],69.4,10,83.8
